US20190008879A1 (priority 2017, published 2019)

Columns and labels:
PI3K/Akt pathway = conditions: cited from earlier work
[1] = system: mammary tumor cell line MCF-7; test: In vitro antitumor activity on MCF-7, noted by the inventor; assay type: cell-based, human; conditions: MCF-7 strain
periampullary cancer = test: Preventive consumption of phytin by the patient before the diagnosis; assay type: in vivo, human; conditions: 1.4 g/day phytin solubilized in citric acid, oral, for 5 years before diagnosis
Excerpt: Before their admission to emergency department, the patient consumed, on a regular basis, with a view to prevention and for 5 years as an oral food supplement, 1.4 g/day of phytin solubilized in citric acid.

[2] = system: invasive ductal breast cancer; conditions: 6 g/d in addition to chemotherapy, six months, 14 patients; cited from earlier work

Which results are given for `O=P(O)(O)O[C@@H]1[C@@H](OP(=O)(O)O)[C@H](OP(=O)(O)O)[C@H](O)[C@H](OP(=O)(O)O)[C@H]1OP(=O)(O)O` [myo-inositol 1,3,4,5,6 pentakis phosphate]?
antitumor activity compared with phytin (PI3K/Akt pathway): higher than that of phytin; anti-angiogenic action (PI3K/Akt pathway; concentration of 50 μM): anti-angiogenic action by inhibiting the PI3K/Akt pathway

With `O[C@H]1[C@H](O)[C@@H](O)[C@H](O)[C@@H](O)[C@H]1O` [myo-inositol] as the compound, how does the “in vitro antitumor action” value [1] read?
The value was “no in vitro antitumor action”.

For phytin, which “antitumor activity in human in the absence of magnesium chloride” value (periampullary cancer) is on record?
The value was “does not have antitumor activity in human”.

And the “cytopenia (leucocyte and platelet quantitative deficiency)” value [2]?
The value was “preserved from cytopenia”.

And the tumor progression [2]?
The tumor progression was “no impact on tumor progression”.
